From PubChem BioAssay (NCI)
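Interpolation was linear, between the two tested concentrations surrounding the appropriate level; five concentrations were tested over 48 hours in 96-well plates. Abbreviation: GI50, concentration required for 50% inhibition of growth. TGI: concentration producing complete growth inhibition.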

Key:
Test in all cases: NCI-60 cell line screen, 48 h
CAKI-1 renal = tested on: CAKI-1 renal
HOP-62 NSCLC = tested on: HOP-62 NSCLC
IGROV1 ovarian = tested on: IGROV1 ovarian
KM12 colon = tested on: KM12 colon
MALME-3M melanoma = tested on: MALME-3M melanoma
MDA-MB-435 = tested on: MDA-MB-435
NCI-H23 lung = tested on: NCI-H23 lung
RXF 393 renal = tested on: RXF 393 renal
SK-MEL-5 melanoma = tested on: SK-MEL-5 melanoma
U251 CNS = tested on: U251 CNS

SMILES | TGI (CAKI-1 renal) [µM] | TGI (HOP-62 NSCLC) [µM] | TGI (IGROV1 ovarian) [µM] | TGI (KM12 colon) [µM] | TGI (MALME-3M melanoma) [µM] | TGI (MDA-MB-435) [µM] | TGI (NCI-H23 lung) [µM] | TGI (RXF 393 renal) [µM] | TGI (SK-MEL-5 melanoma) [µM] | TGI (U251 CNS) [µM] | GI50 (CAKI-1 renal) [µM] | GI50 (HOP-62 NSCLC) [µM] | GI50 (IGROV1 ovarian) [µM] | GI50 (KM12 colon) [µM] | GI50 (MALME-3M melanoma) [µM] | GI50 (MDA-MB-435) [µM] | GI50 (NCI-H23 lung) [µM] | GI50 (RXF 393 renal) [µM] | GI50 (SK-MEL-5 melanoma) [µM] | GI50 (U251 CNS) [µM]
COc1ccc2c3c1OC1C(OC)(OC)CC4(C=C2)CN(C)CCC314 (centres undefined) | > 100 | > 100 | > 100 | > 100 | > 100 | > 100 | > 100 | > 100 | > 100 | > 100 | – | – | – | – | – | – | – | – | – | –
N#Cc1c(-c2ccc([N+](=O)[O-])cc2)cc(-c2ccc(Nc3ccnc4cc(Cl)ccc34)cc2)nc1N | 40.4 | 29.7 | 15 | 14.7 | 39.9 | 17.5 | 65.6 | 34.9 | > 55.4 | 2.82 | – | – | – | – | – | – | – | – | – | –
CN1NC(c2ccccc2)=C(C#N)C(=O)CC1c1ccc(Br)cc1 (centres undefined) | > 100 | 61 | – | > 100 | > 100 | – | > 100 | > 100 | 57.7 | – | – | – | – | – | – | – | – | – | – | –
Cc1ccc(C(=O)N/N=C2/C(=O)c3c4ccccc4cc4cccc2c34)cc1 | > 81 | 43.4 | > 85.2 | > 84.3 | 44.4 | > 73.4 | 77.8 | > 69 | > 70.7 | > 67.3 | – | – | – | – | – | – | – | – | – | –
O=P1(Cc2ccccc2)c2ccccc2-c2ccccc21 | 50.4 | > 52.6 | 19.3 | 10.3 | 12.7 | 12.3 | 22.1 | 28.9 | 4.18 | 70.5 | – | – | – | – | – | – | – | – | – | –
C=CCN(CCN(CC=C)S(=O)(=O)c1ccc(C)cc1)S(=O)(=O)c1ccc(C)cc1 | – | – | – | > 100 | – | > 100 | > 100 | > 100 | > 100 | > 100 | – | – | – | – | – | – | – | – | – | –
CC(C)=C[C@@H]1O[C@H](O)[C@@H]([C@H]2CC[C@@]3(C)[C@@H]4CC[C@H]5C(C)(C)C(=O)CC[C@@]56C[C@@]46CC[C@]23C)[C@@H]1O | 31 | 62.2 | 35.4 | 34.9 | 37.7 | 41.7 | 32.9 | 27.8 | 41.8 | 34.8 | – | – | – | – | – | – | – | – | – | –
CC[n+]1c(/C=C/c2ccc(N(CCCl)CCCl)cc2)ccc2cc(I)ccc21 | 6.19 | 3.55 | 8.27 | – | 2.93 | – | 23.5 | 3.77 | – | – | – | – | – | – | – | – | – | – | – | –
CCOC1CCN(C(=O)c2ccccc2)O1 (centres undefined) | > 10 | > 10 | > 10 | – | > 10 | > 10 | > 10 | > 10 | > 10 | – | – | – | – | – | – | – | – | – | – | –
Cc1ccc(/S(Cc2ccccc2)=N\S(=O)(=O)c2ccc(C)cc2)cc1 (centres undefined) | – | > 100 | – | > 100 | > 100 | > 100 | > 100 | > 100 | – | > 100 | – | – | – | – | – | – | – | – | – | –
O=C(NC1(C(=O)O)CCCC1)c1ccccc1 | > 100 | > 100 | > 100 | > 100 | – | > 100 | > 100 | > 100 | > 100 | > 100 | – | – | – | – | – | – | – | – | – | –
OC12c3ccccc3C1CCCCCC21OCCCO1 (centres undefined) | > 100 | > 100 | > 100 | > 100 | > 100 | – | > 100 | > 100 | > 100 | > 100 | – | – | – | – | – | – | – | – | – | –
COc1cccc2cc(C(=O)NC34CC5CC(CC(C5)C3)C4)c(=N)oc12 | > 100 | > 100 | > 85.7 | > 100 | > 100 | > 100 | > 100 | > 79.9 | > 100 | > 100 | – | – | – | – | – | – | – | – | – | –
C=CCn1c(=N)/c(=C(\N)O)s/c1=C1/SC(=S)N(c2ccc(C)cc2)C1=O | – | – | > 100 | > 100 | > 100 | – | > 100 | – | > 100 | > 100 | – | – | – | – | – | – | – | – | – | –
COc1ccccc1C1C(C#N)=C(N)Oc2cc(O)ccc21 (centres undefined) | 68.9 | 60.2 | 25.4 | > 100 | 88.6 | 9.52 | 49.4 | 75.6 | 71.9 | 62.6 | 17.7 | 15.8 | 1.98 | 9.57 | 21.6 | 4.1 | 17.6 | 23.2 | 22.4 | 19.8
CC(=O)NC1C(OCc2ccccc2)OC(CO)C(O)C1OCC(=O)N[C@@H](C)C(=O)N[C@H](CCC(=O)NCCNc1ccc([N+](=O)[O-])c2[nH]c3ccccc3c(=O)c12)C(N)=O (some centres undefined) | > 100 | > 100 | – | > 100 | > 100 | > 100 | 90 | – | > 100 | > 100 | – | – | – | – | – | – | – | – | – | –
CCOC(=O)/C=C(/C(=O)OCC)n1ccc(=O)n(Cc2cnnn2CCCCOC(C)=O)c1=O | 76.3 | > 100 | > 100 | > 100 | – | > 100 | > 100 | > 100 | > 100 | > 100 | – | – | – | – | – | – | – | – | – | –
CCOC(=O)c1nc2cc(C(F)(F)F)ccc2nc1Oc1ccc(F)cc1 | > 100 | – | > 100 | > 100 | > 100 | > 100 | – | > 100 | > 100 | > 100 | – | – | – | – | – | – | – | – | – | –
O=C(c1ccco1)N(C(=S)N1CCN(c2ccccn2)CC1)c1ccccc1 | > 100 | > 100 | > 100 | > 100 | > 100 | – | > 100 | > 100 | > 100 | > 100 | – | – | – | – | – | – | – | – | – | –
O=C(O)c1ccc(Nc2nc3nn(Cc4ccccc4)cc3c(=O)s2)cc1 | – | > 100 | > 100 | > 100 | > 100 | – | > 100 | > 100 | > 100 | > 100 | – | – | – | – | – | – | – | – | – | –
O=C1/C(=C/c2ccccc2)CCCc2ccccc21 | 76.2 | 36.3 | 38.8 | 35.2 | 42 | 38.9 | 34.2 | – | – | 29.1 | – | – | – | – | – | – | – | – | – | –
CCCCCCCCCC(=O)NC(Cc1ccc(O)cc1)C(=O)NCCCNCCCCNCCCNC(=O)[C@@H](N)CCCN=C(N)N (some centres undefined) | – | 69.5 | 74.5 | 61.5 | 39.7 | – | > 100 | – | 35.7 | – | – | – | – | – | – | – | – | – | – | –
